Laboratory results taken from PMC4493534 (Theranostics, 2015).

Key:
TSPO [1] = test: In vitro autoradiography of postmortem human brain; type: binding; details: postmortem human temporal cortex sections, 0.5 nM radioligand
TSPO [2] = target: TSPO (Rattus norvegicus, UniProt P16257); details: ischemic rat brain, previously published data; cited from earlier work
Chain of TSPO (Rattus norvegicus, UniProt P16257) (P16257 whole entry): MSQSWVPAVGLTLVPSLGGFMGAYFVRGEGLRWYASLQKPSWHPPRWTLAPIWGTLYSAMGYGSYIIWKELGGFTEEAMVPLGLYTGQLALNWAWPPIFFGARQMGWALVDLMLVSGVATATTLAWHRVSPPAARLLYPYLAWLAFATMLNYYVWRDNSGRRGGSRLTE

Compound	binding ratio for HAB-1 to that of LAB-1, RB(H/L) (also printed RB(L/H)) (TSPO [1])	apparent BPND (SRTM) (TSPO [2])
COc1ccc(O[11CH3])c(CN(C(C)=O)c2cc(F)ccc2Oc2ccccc2)c1 [[^11C]DAA1106]	~1.19	
CC[C@@H](C)N([11CH3])C(=O)c1cc2ccccc2c(-c2ccccc2Cl)n1 [(R)[^11C]PK11195]		1.59 ± 0.33
CCN(Cc1ccccc1)C(=O)Cn1c(=O)n(C)c2cnc(-c3ccccc3)nc21 [[^11C]AC-5216]	~4.60	
